Measurements taken from patent US20190209515A1, “Treatment of Bladder Cancer by Intratumoral Injection of Taxane Particles” (CRITITECH, INC., priority 2018, published 2019).
Values joined by “and” are separate entries in the source; they are usually repeats but may differ in a detail not shown here. Identical values can stand only once. “Also recorded” adds a separate entry of the source. Marks after values point to notes of the source that are not given here.

Experiments:
[1] = Docetaxel dissolution study, methanol/water 15/85, USP Apparatus II; type: physicochemical; settings: methanol/water 15/85 (v/v), 37° C., pH 7, USP Apparatus II 75 rpm
Description: The procedures used to determine the dissolution rates are as follows. […] Beads were transferred to a stainless steel mesh container and placed in the dissolution bath containing methanol/water 50/50 (v/v) media at 37° C., pH 7, and a USP Apparatus II (Paddle), operating at 75 rpm. At 10, 20, 30, 60, and 90 minutes, a 5 mL aliquot was removed, filtered through a 0.22 μm filter and analyzed on a UV/VIS spectrophotometer at 227 nm. Absorbance values of the samples were compared to those of standard solutions prepared in dissolution media to determine the amount of material dissolved. […] At 5, 15, 30, 60, 120 and 225 minutes, a 5 mL aliquot was removed, filtered through a 0.22 μm filter, and analyzed on a UV/VIS spectrophotometer at 232 nm. Absorbance values of the samples were compared to those of standard solutions prepared in dissolution media to determine the amount of material dissolved.
At 5, 15, 30, 60, 120 and 225 minutes, a 5 mL aliquot was removed, filtered through a 0.22 μm filter, and analyzed on a UV/VIS spectrophotometer at 232 nm. Absorbance values of the samples were compared to those of standard solutions prepared in dissolution media to determine the amount of material dissolved.

[2] = BET specific surface area analysis; type: physicochemical
Description: As used herein, the “specific surface area” (SSA) is the total surface area of the taxane particle per unit of taxane mass as measured by the Brunauer-Emmett-Teller (“BET”) isotherm by the following method: a known mass between 200 and 300 mg of the analyte is added to a 30 mL sample tube. […] The automated test is then carried out using the BETWIN® software package and the surface area of each sample is subsequently calculated. As will be understood by those of skill in the art, the “taxane particles” can include both agglomerated taxane particles and non-agglomerated taxane particles; since the SSA is determined on a per gram basis it takes into account both the larger agglomerated and smaller non-agglomerated taxane particles in the composition. The agglomerated taxane particles are defined herein as individual taxane particles that are formed by the agglomeration of smaller particles which fuse together forming the larger individual taxane particles, all of which occurs during the processing of the taxane particles. […]
A known mass between 200 and 300 mg of the analyte was added to a 30 mL sample tube. […] The automated test was then carried out using the BETWIN® software package and the surface area of each sample was subsequently calculated.

[3] = Paclitaxel dissolution study, methanol/water 50/50, USP Apparatus II; type: physicochemical; settings: methanol/water 50/50 (v/v), 37° C., pH 7, USP Apparatus II 75 rpm
Description: Beads were transferred to a stainless steel mesh container and placed in the dissolution bath containing methanol/water 50/50 (v/v) media at 37° C., pH 7, and a USP Apparatus II (Paddle), operating at 75 rpm. […] Absorbance values of the samples were compared to those of standard solutions prepared in dissolution media to determine the amount of material dissolved. […] Absorbance values of the samples were compared to those of standard solutions prepared in dissolution media to determine the amount of material dissolved.
Beads were transferred to a stainless steel mesh container and placed in the dissolution bath containing methanol/water 50/50 (v/v) media at 37° C., pH 7, and a USP Apparatus II (Paddle), operating at 75 rpm. […] Absorbance values of the samples were compared to those of standard solutions prepared in dissolution media to determine the amount of material dissolved.

[4] = Particle size analysis (light obscuration / laser diffraction); type: physicochemical
Description: Particle size was analyzed by both light obscuration and laser diffraction methods. An Particle Sizing Systems AccuSizer 780 SIS system was used for the light obscuration method and Shimadzu SALD-7101 was used for the laser diffraction method.
The vials were vortexed for approximately 10 seconds and then sonicated in a sonic bath approximately 1 minute.
The vial was vortexed for approximately 10 seconds and then sonicated in a sonic bath for approximately 2 minutes. This suspension was used for laser diffraction analysis. Unused suspension was poured into a 125 mL particle-free plastic bottle, which was then filled to approximately 100 mL with filtered dispersant. The suspension was vortex for approximately 10 seconds and then sonicated in the sonic bath for approximately 2 minutes. This diluted suspension was used for light obscuration analysis.
A background test was first performed prior to analyzing particles on the AccuSizer 780 SIS. A new particle-free plastic bottle was filled with blank suspension solution by pumping from a reservoir, using a peristaltic pump, through a 0.22 μm Millipore filter and into the bottle. A background analysis was run to ensure the particle/mL count was below 100 particles/mL. […] Once the analysis was completed, the background data was removed and any measurement with less than four counts was removed. […]

[5] = not told, pH 4
Description: Receptor Fluid: The receptor fluid consisted of 60 vol %/40 vol % methanol/water at pH 4 with 0.01 wt % NaN3 (added as a preservative). […] After mixing and degassing the Receptor Fluid it was filtered through a ZapCap CR 0.2 μm membrane under vacuum; the Receptor Fluid, so filtered, was stirred for an additional 20 minutes under vacuum.

[6] = IV docetaxel 3 cycles, of 7 tumors measured, day of death or euthanasia
[7] = tested on: UM-UC-3 bladder cancer cell line (ATCC-CRL-1749) tumors; experiment: Human bladder cancer (UM-UC-3) mouse xenograft study, tumor volume; type: in vivo
Description: (§1) Tumor volume was determined with calipers. […] Animals were weighed 2×/week.
At day 18 after tumor implant, when average tumor size was between 50-325 mm^3, animals were sorted into five groups with equal average tumor sizes and were treated as shown in Table 8 below.
The second treatments (2nd cycle) occurred 7 days following first treatment (1st cycle) and third treatments (3rd cycle) occurred 14 days following the first treatment. The docetaxel solution IV was administered via the tail vein.
Vehicle (Control): Diluted 1 ml of the 1% Polysorbate 80/8% Ethanol in normal saline (0.9% Sodium Chloride for Injection) reconstitution solution with 1.5 mL of normal saline (0.9% Sodium Chloride for Injection, USP). […] Vigorously hand shook the vial with inversions for 1 minute. […] Allowed the suspension to sit undisturbed for at least 5 minutes to reduce entrapped air and foam. […] Vortexed to mix.
Tumor volumes were determined 2×/week for the duration of the study (61 days).

[8] = mouse, in vivo, iv
Description: as §1

[9] = tested on: UM-UC-3 bladder cancer cell line (ATCC-CRL-1749) tumors; experiment: UM-UC-3 xenograft study, H&E histology and immunohistochemistry of tumor site tissue; type: in vivo, mouse
[10] = IV Docetaxel 3 cycles, individual animals
[11] = IV Docetaxel 3 cycles, 2 animals

For `CC(=O)O[C@@]12CO[C@@H]1C[C@H](O)[C@@]1(C)C(=O)[C@H](O)C3=C(C)[C@@H](OC(=O)[C@H](O)[C@@H](NC(=O)OC(C)(C)C)c4ccccc4)C[C@@](O)([C@@H](OC(=O)c4ccccc4)[C@H]21)C3(C)C` [Docetaxel Raw Material, docetaxel], the “Dissolution (30 min)” value [1] was 11%.
For `CC(=O)O[C@H]1C(=O)[C@@]2(C)[C@H]([C@H](OC(=O)c3ccccc3)[C@]3(O)C[C@H](OC(=O)[C@H](O)[C@@H](NC(=O)c4ccccc4)c4ccccc4)C(C)=C1C3(C)C)[C@]1(OC(C)=O)CO[C@@H]1C[C@@H]2O` [Paclitaxel Raw Material, paclitaxel], the “Surface Area” value [2] was 10.4 m^2/g, the “Dissolution (30 min)” value [3] was 18% and the “Number Mean” value [4] was 1.16 um.
For `CC(=O)O[C@H]1C(=O)[C@@]2(C)[C@H]([C@H](OC(=O)c3ccccc3)[C@]3(O)C[C@H](OC(=O)[C@H](O)[C@@H](NC(=O)c4ccccc4)c4ccccc4)C(C)=C1C3(C)C)[C@]1(OC(C)=O)CO[C@@H]1C[C@@H]2O` [paclitaxel], the “solubility in the Receptor Fluid” value [5] was “sufficient to maintain sink conditions”.
For docetaxel, the “tumors with docetaxel levels above the limit of quantitation (1 ng/g)” value [6] was 1, the tumor volume ([7]; Docetaxel solution 30 mg/kg IV, 3 weekly cycles, to Day 61 post implant) was “subsequently increased; also recorded: somewhat effective at treating small tumors, but not very effective in treating large tumors” and the Necropsy volume [7, 10] was 2872 mm^3 and 1652 mm^3. The “initial animal weight loss” value [8] was “generally greater”, the “signs of peripheral neuropathy” value [8] was “greater signs of peripheral neuropathy” and the “general histological observations (H&E)” value ([9]; Docetaxel solution IV 3 cycles) was “many viable appearing tumor masses with some macrophage and occasional lymphocytic response along with some tumor necrosis”. The “Maximum size of viable invasive carcinoma on the slide >10 mm, number of animals” value [9, 11] was 2*, the “Percentage of tumor showing necrosis 11-50%, number of animals” value [9, 11] was 1 and the “Percentage of tumor showing necrosis 50-90%, number of animals” value [9, 11] was 1. The “Macrophage infiltrate density Mild, number of animals” value ([9]; IV Docetaxel 3 cycles, 2 animals, H&E and CD68) was 2 and the “Maximum tumor size on slide” value [9, 10] was 11 mm and 15 mm.
